Assay results as given in patent publication US9394309B2, “Substituted phenylimidazopyrazoles and their use” (BAYER INTELLECTUAL PROPERTY GmbH, priority 2012, dated 2016).

Columns and labels:
endogenous Tie2 receptor = endogenous Tie2 receptor (Homo sapiens (Human), UniProt Q02763); experiment: Tie2-pTyr-ELISA (Tie2 autophosphorylation in HUVEC); assay type: cell-based; conditions: autophosphorylation elevated by 4 mM sodium orthovanadate, from 2-7 independent measurements
Description: The cellular activity of the compounds according to the invention as Tie2 kinase inhibitors was determined in human endothelial cells (HUVEC) by measuring the inhibition of the autophosphorylation, elevated by treatment with sodium orthovanadate, of the endogenous Tie2 receptor by means of a Tie2/phosphotyrosine sandwich ELISA.
Human endothelial cells (human umbilical vein endothelial cells, HUVEC) were obtained from Cellsystems (FC-0003), cultured in Vasculife VEGF complete medium (Cellsystems, LL-1020) with 2% foetal calf serum (FCS) at 37° C./5% CO2 and used for Tie2-ELISA measurements up to passage 8.
HUVEC were plated in a culture volume of 100 μl of Vasculife VEGF complete medium at a cell density of 30 000 cells per well in transparent collagen-coated 96-well cell culture plates (Falcon, #353075) and incubated in an incubation cabinet at 37° C./5% CO2 overnight. The test substances dissolved in DMSO were used to prepare in each case one dilution series in Vasculife VEGF low-serum medium [basal medium with LifeFactors (Cellsystems, LM-0002), without FCS, with 0.1% BSA] without sodium orthovanadate and one dilution series in Vasculife VEGF low-serum-medium with 8 mM sodium orthovanadate in the desired concentrations in the range from […] to […], the final DMSO concentration being 1%. […]

[1] = target: intracellular domain of human Tie2 (GST fusion protein) (Homo sapiens (Human), UniProt Q02763); experiment: Tie2 kinase assay (Tie2-TR-FRET); assay type: biochemical; conditions: ATP concentration 1 mM; in some cases means of several independent determinations
Description: The Tie2-inhibitory activity of the substances according to the invention was determined with the aid of one of the Tie2-TR-FRET assays described in the sections below at an ATP concentration of 1 mM (TR-FRET=Time-Resolved Fluorescence Resonance Energy Transfer):
The enzyme used was a recombinant fusion protein of glutathione S-transferase (GST) and the intracellular domain of human Tie2 (amino acids 776-1124) which was expressed in Baculovirus-infected insect cells (Hi5) and was purified by affinity chromatography on glutathione-Sepharose. Alternatively, it is also possible to use commercially available GST-His6-Tie2 fusion protein (ProQinase GmbH, Freiburg im Breisgau, Germany). The substrate used for the kinase reaction was the biotinylated peptide biotin-Ahx-[…] […]
The reaction was stopped by addition of 5 μl of a solution of TR-FRET detection reagents [200 nM streptavidin-XL665 and 2 nM PT66-Eu chelate, a europium chelate-labelled anti-phosphotyrosine antibody (Perkin-Elmer); alternatively, it is also possible to use PT66-Tb cryptate (Cisbio Bioassays, Codolet, France)] in aqueous EDTA solution [90 mM EDTA, 0.28% (w/v) bovine serum albumin (BSA) in 50 mM HEPES pH 7.5]. […] The amount of phosphorylated substrate was then determined by measuring the resonance energy transfer from PT66-Eu chelate to streptavidin-XL665. […]

Sequence of intracellular domain of human Tie2 (GST fusion protein) (Q02763 776-1124): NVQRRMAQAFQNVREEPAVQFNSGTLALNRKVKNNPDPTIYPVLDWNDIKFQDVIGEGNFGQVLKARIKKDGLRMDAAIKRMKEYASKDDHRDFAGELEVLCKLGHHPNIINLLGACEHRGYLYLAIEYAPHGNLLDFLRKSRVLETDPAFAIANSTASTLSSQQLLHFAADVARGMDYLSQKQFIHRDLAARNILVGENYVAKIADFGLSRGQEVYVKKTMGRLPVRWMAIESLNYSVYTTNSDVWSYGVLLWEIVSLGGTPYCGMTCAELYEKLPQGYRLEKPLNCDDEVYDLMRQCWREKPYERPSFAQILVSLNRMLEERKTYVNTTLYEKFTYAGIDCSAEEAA
Sequence of endogenous Tie2 receptor (Q02763 23-1124): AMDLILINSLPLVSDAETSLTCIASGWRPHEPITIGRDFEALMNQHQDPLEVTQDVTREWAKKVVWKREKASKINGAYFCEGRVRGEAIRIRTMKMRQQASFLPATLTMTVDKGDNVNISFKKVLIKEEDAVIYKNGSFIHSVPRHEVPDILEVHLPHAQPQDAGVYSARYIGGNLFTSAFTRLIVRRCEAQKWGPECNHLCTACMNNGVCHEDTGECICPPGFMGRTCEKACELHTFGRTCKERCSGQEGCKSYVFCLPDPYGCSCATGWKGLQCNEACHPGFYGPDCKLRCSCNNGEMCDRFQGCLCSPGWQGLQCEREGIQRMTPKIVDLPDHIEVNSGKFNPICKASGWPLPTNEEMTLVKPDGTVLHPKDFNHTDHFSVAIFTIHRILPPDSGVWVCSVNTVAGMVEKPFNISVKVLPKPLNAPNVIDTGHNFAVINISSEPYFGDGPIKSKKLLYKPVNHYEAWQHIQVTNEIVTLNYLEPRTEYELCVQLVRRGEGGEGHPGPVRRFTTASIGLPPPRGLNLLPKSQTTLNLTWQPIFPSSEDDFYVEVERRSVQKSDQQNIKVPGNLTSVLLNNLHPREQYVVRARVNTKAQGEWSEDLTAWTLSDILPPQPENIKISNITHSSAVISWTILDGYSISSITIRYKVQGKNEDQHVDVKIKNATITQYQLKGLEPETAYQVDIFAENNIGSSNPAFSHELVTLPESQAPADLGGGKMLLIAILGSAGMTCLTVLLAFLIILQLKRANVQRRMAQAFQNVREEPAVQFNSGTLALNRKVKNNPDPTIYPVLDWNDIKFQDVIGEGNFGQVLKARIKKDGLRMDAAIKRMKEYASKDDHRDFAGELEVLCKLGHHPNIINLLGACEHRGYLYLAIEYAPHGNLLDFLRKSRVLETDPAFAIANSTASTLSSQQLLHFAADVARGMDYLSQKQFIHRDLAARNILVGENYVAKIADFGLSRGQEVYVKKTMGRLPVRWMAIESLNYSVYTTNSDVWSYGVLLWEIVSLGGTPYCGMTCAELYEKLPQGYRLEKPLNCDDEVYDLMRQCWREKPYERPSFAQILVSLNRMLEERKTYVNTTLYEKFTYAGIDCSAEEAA

## Cc1ccc(NC(=O)c2cc(C#N)cc(S(F)(F)(F)(F)F)c2)cc1-n1ccn2nc(-c3cn[nH]c3)cc12 [Example 85, 3-Cyano-N-{4-methyl-3-[6-(1H-pyrazol-4-yl)-1H-imidazo[1,2-b]pyrazol-1-yl]phenyl}-5-(pentafluoro-λ^6-sulphanyl)benzamide]
Endogenous Tie2 receptor
  IC50: 44 nM
[1]
  IC50: 20 nM
